# Test results from ChEMBL document CHEMBL1135023, “A lipophilic thioflavin-T derivative for positron emission tomography (PET) imaging of amyloid in brain” (Bioorg Med Chem Lett, 2002).
# Key:
# [1] = test system: Mus musculus; experiment: Compound was tested in vivo for mouse brain uptake after 30 min; Mouse brain uptake per g; assay type: functional, organism-based
# [2] = test system: Mus musculus; experiment: Compound was tested in vivo for mouse brain uptake after 2 min; Mouse brain uptake per g; assay type: functional, organism-based
# [3] = Octanol-water partition at pH 7.4; assay type: physicochemical
# [4] = In vitro binding using synthetic aggregated Abeta(1-40) fibrils
# [5] = Ratio of 2-30 min mouse brain uptakes per g was determined; assay type: functional
SMILES,ID/g [1],ID/g [2],logD [3],Ki [4],Ratio [5]
CNc1ccc(-c2nc3ccccc3s2)cc1,1.7%,12.9%,2.7,–,–
Cc1ccc2c(c1)sc(-c1ccc(N(C)C)cc1)[n+]2C,–,–,0.57,–,–
CNc1ccc(-c2nc3ccc(C)cc3s2)cc1,2.8%,7.6%,3.4,10 nM,2.7
